Measured values as given in patent US20260166084A1, “NOVEL DRUG-INDUCIBLE DEGRADATION TAGS” (THE INSTITUTE OF CANCER RESEARCH: ROYAL CANCER HOSPITAL, priority 2022, published 2026).
“Also recorded” adds a separate entry of the source.

Experiments:
[1] = system: iTAG2 and DCD23-tagged chimeric antigen receptor (TE9-28-Z); test: IMiD induced degradation of tagged CAR in transduced Jurkat cells; type: cell-based, human
Method: (§1) CAR expression in PBMC-derived T cells following degradation with 10, 1, 0.1, 0.01, 0.001 or 0 uM iberdomide after 24 hours, was assessed by flow cytometry. To assess CAR functionality+/−degrader tag, transduced T cells were cultured 24 hours with SUPT1+/−B7H3 at a 1:1 ratio. Supernatant was harvested, and IL-2 and IFNγ levels determined by ELISA.
(§2) CAR surface expression for transduction efficiency and degradation experiments in primary cells and cell lines was quantified using his-tagged B7H3 protein in combination with anti his-tagged fluorescent antibody (J095G45, BioLegend), and directly fluorescently labelled anti CD34 antibody (QBEnd10, R&D), using LSR2 cytometer. Analysis used Flo-Jo software.

[2] = system: TE9-28-Z CAR; test: IMiD induced degradation and re-expression of tagged CAR in primary human T cells; type: cell-based
Excerpt: The re-expression of degraded chimeric antigen receptors following removal of the degrader drug is important for the CAR-T cell to be able to toggle between active and resting states, thereby allowing additional therapeutic manipulation and fine-tuning.
To evaluate the general functionality of the TE9-28Z-iTAG2 anti-B7H3 CAR-T construct when expressed from a different viral vector, driven by alternate promoter, the construct was cloned into third generation lentivector pCLL2 backbone and viral supernatant was generated by transient transfection of 293T cells, with virus pseudotyped with VSV-G. Two versions of the TE9-28Z-iTAG2 sequence were evaluated in this format, which were with and without codon optimisation and removal of cloning scars. There are no differences in amino acid sequence of iTAG2 between original (construct 3) and codon optimised (construct 4) versions (FIG. 16 a and b). […] The log reduction in CAR expression as expressed as geometric median fluorescence intensity (gMFI) was highly consistent. […]
PBMC-derived T cells from 2 healthy donor blood cones were cultured following CD56 depletion (day0) which was performed using Miltenyi CD56 depletion beads and magnetic negative selection using LD columns according to manufacturer's instructions. […] Transduction efficiency was assessed 4 days post transduction by flow cytometry staining for RQR8 and CAR expression.
CAR expression in PBMC-derived T cells following degradation with 10, 1, 0.1, 0.01, 0.001 or 0 uM iberdomide after 24 hours, was assessed by flow cytometry. […] Supernatant was harvested, and IL-2 and IFNγ levels determined by ELISA.
CAR surface expression for transduction efficiency and degradation experiments in primary cells and cell lines was quantified using his-tagged B7H3 protein in combination with anti his-tagged fluorescent antibody (J095G45, BioLegend), and directly fluorescently labelled anti CD34 antibody (QBEnd10, R&D), using LSR2 cytometer. […]

[3] = target: T1, complexes formed between CRBN/DDB1 and IMiDs (Homo sapiens, UniProt Q96SW2); test: Aiolos peptide-based TR-FRET assay; type: binding; details: IMiDs at 10 μM
T1 construct: 5 nM WT full length CRBN/DDB1 complex; made in house
Method: A schematic representation of the Aiolos peptide-based time resolved-Förster resonance energy transfer (TR-FRET) assay is presented in FIG. 11. […] The results are presented in FIG. 12, including the IC50s calculated from the TR-FRET curves. Overall, the IC50s obtained for iTAG2 were higher than those obtained for iTAG1 with about a 10-fold difference.
All TR-FRET assays were ran in Black 384-well ProxiPlate Plus (Perkin-Elmer, USA), in a buffer containing 20 mM HEPES pH 8.0, 150 mM NaCl, 0.5 mM TCEP, 0.05% Tween 20 and 0.05% BSA, with a final assay volume of 10 μL. An Echo E550 (Beckman Coulter, USA) acoustic liquid dispenser was used to create final concentration ranges from 82 μM down to 2.05 nM for iTAG1 and 27 μM down to 0.68 nM for iTAG2. Final concentrations of 5 nM WT full length CRBN/DDB1 complex, 750 nM Sulfo-Cy5 fluorescent Aiolos-based peptidic probe (Cambridge Research Biochemicals, UK), 750 nM Zn(OAc)^2 and 0.5 nM MAb Anti-6HIS-Terbium cryptate Gold (Cisbio, France) were added with a Tempest liquid handler (Formulatrix, USA). Finally, IMiDs were added to a final concentration of 10 μM with the Echo. Plates were sealed, centrifuged at 200 g for 1 min and stored overnight at 4° C. The TR-FRET signals were read using a PHERAstar FSX plate reader (BMG Labtech, Germany). Final signal was measured as the ratio: […]

[4] = system: HMEC cells; test: Nuclear localisation by immunofluorescence in HMEC; type: cell-based, human; details: fluorescence microscopy, FIG. 3b and 13
Method: To determine localisation of “superdegron” which has a degree of homology with iTAG1, the inventors cloned superdegron into the expression vector to replace iTAG1 as the degron fused with GFP.
HMEC cells were seeded in glass bottom 96-well plates (Perkin Elmer) at a 1000 cells/well and treated with 1 μg/ml DOX for 24 h to induce construct. Cells were fixed using 4% paraformaldehyde in PBS solution for 15 min at 37° C. and permeabilised with 0.05% Titon-X-100 detergent for 10 min at room temperature. Prior to proceeding to cell imaging, the cells were incubated for a min with 1 μg/ml DAPI (ThermoFisher Scientific) to stain the cell nuclei. Cells were visualised on the Zeiss Axio Vert.A1 FL-LED inverted epifluorescence microscope (Zeiss) and images were captured using the ZEN Blue software (Zeiss).

[5] = system: anti-B7H3 chimeric antigen receptor (TE9); test: Cell surface expression of tagged CAR in transduced Jurkat and 293T cells by flow cytometry; type: cell-based, human
Method: Initial experiments evaluated expression and degradation in human Jurat T cell leukaemia cells or human 293T cells, which were stably transduced with untagged, iTAG1(DCD23)-tagged, and iTAG2-tagged anti-B7H3 CAR-T cells. Here the relative expression of the CAR and the CD34 marker gene are determined by direct staining and evaluation by flow cytometry.
Jurkat and 293T cell lines were grown in DMEM with 10% fetal calf serum and transduced with constructs containing CAR+/−degrader tag. Transduction efficiency was analysed 72 hours post transduction by flow cytometry, staining for the CD34 epitope encoded by the RQR8 gene.
as §2

[6] = system: SupT1 cells transduced to express human B7H3; test: CAR functionality: cytokine ELISA after co-culture with SupT1-B7H3 targets; type: cell-based; details: primary human T cells
Excerpt: To evaluate whether the brighter CAR expression of iTAG2 tagged CAR compared with DCD23-tagged CAR translated into greater effector function, the respective CAR-T populations from the two independent donors were co-cultured overnight with human SupT1 leukaemia target cells isogenic for the target antigen B7H3. Wild type SupT1 have no detectable B7H3 expression. Following overnight culture of T cells with the targets, culture supernatant was harvested and evaluated for inflammatory cytokines interferon gamma and Interleukin-2 by ELISA (FIG. 9).
as §1

[7] = target: T2, CRBN/DDB1 complex (Homo sapiens, UniProt Q96SW2); test: Size exclusion chromatography of CRBN/DDB1 and iTAG2 with or without iberdomide; type: binding; details: 15 μM CRBN/DDB1, 50 μM iTAG2, 100 μM iberdomide, FIG. 14
T2 construct: made in house
Excerpt: Biochemical evidence for IMiD-dependent formation of a direct interaction between iTAG2 and the CRBN/DDB1 complex was generated using size exclusion chromatography (SEC). Purified CRBN/DDB1 protein complex and iTAG2 protein were mixed together and subjected to SEC in the presence or absence of iberdomide, shown in FIG. 14. The SEC peak 1 corresponding to the higher molecular weight species was shifted towards a lower elution time in the presence of iberdomide, with a slight increase in the optical density at 280 nm, which is consistent with the formation of a larger complex in the presence of iberdomide (FIG. 14A). SDS-PAGE analysis of representative fractions of the SEC analysis in the absence of iberdomide confirmed that the SEC peak 1 contains only DDB1 and CRBN proteins, with iTAG2 only present in the SEC peak 2 (FIG. 14B).
SEC was performed using a Superose 6 5/150 GL column (Cytiva Life Sciences) mounted on an Agilent 1260 Infinity II LC System HPLC system. […] 100 μL fractions were collected and samples spanning the elution peaks were analysed by SDS-PAGE on precast NuPAGE 4-12% Bis-Tris gels (Invitrogen) using standard protocols, with SeeBlue Plus2 pre-stained protein standards (Invitrogen) loaded on the first lane of each gel.

T2 sequence (Q96SW2 whole entry, one chain of several): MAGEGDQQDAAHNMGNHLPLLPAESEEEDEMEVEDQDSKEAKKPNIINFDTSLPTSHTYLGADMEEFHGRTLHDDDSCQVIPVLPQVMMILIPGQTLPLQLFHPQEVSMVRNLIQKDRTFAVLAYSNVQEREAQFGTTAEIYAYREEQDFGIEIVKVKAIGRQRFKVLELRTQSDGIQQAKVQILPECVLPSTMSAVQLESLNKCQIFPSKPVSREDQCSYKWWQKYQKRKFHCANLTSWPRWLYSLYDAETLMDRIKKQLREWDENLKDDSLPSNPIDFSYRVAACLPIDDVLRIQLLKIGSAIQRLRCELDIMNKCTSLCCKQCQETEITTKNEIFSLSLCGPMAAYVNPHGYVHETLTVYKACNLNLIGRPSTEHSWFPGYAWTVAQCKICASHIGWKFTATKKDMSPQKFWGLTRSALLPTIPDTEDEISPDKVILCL
T2 sequence (Q16531 2-1140 partner, one chain of several): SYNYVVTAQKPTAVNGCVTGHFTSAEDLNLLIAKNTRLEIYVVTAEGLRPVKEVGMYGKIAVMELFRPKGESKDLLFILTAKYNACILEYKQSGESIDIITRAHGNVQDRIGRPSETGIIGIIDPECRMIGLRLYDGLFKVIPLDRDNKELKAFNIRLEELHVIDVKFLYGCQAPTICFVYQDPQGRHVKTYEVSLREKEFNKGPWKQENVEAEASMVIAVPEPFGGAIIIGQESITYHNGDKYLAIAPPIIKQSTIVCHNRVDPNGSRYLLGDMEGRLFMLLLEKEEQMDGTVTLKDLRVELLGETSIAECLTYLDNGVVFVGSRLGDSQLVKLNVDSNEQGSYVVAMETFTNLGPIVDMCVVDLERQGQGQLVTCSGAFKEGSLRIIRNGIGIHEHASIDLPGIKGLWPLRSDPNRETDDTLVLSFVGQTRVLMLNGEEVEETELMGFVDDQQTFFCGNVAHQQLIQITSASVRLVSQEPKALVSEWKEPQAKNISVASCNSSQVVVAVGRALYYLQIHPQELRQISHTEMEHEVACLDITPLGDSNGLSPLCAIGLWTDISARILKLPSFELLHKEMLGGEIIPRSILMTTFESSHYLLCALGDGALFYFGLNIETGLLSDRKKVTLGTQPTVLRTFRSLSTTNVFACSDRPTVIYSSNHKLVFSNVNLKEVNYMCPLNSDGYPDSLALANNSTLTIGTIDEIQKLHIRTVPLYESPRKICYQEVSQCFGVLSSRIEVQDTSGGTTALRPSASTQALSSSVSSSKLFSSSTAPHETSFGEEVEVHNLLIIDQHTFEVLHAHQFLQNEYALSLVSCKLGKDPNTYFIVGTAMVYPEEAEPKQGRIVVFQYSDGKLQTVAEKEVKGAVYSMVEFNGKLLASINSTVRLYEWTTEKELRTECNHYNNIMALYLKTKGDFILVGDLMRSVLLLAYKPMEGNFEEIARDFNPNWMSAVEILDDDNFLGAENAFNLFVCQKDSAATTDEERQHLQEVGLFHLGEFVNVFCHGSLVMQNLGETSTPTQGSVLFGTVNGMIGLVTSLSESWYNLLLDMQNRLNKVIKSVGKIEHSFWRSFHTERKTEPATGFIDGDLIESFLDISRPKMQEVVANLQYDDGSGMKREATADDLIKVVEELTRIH
T1 sequence (Q96SW2 whole entry): as the sequence (Q96SW2 whole entry, one chain of several) above
T1 sequence (Q16531 whole entry partner): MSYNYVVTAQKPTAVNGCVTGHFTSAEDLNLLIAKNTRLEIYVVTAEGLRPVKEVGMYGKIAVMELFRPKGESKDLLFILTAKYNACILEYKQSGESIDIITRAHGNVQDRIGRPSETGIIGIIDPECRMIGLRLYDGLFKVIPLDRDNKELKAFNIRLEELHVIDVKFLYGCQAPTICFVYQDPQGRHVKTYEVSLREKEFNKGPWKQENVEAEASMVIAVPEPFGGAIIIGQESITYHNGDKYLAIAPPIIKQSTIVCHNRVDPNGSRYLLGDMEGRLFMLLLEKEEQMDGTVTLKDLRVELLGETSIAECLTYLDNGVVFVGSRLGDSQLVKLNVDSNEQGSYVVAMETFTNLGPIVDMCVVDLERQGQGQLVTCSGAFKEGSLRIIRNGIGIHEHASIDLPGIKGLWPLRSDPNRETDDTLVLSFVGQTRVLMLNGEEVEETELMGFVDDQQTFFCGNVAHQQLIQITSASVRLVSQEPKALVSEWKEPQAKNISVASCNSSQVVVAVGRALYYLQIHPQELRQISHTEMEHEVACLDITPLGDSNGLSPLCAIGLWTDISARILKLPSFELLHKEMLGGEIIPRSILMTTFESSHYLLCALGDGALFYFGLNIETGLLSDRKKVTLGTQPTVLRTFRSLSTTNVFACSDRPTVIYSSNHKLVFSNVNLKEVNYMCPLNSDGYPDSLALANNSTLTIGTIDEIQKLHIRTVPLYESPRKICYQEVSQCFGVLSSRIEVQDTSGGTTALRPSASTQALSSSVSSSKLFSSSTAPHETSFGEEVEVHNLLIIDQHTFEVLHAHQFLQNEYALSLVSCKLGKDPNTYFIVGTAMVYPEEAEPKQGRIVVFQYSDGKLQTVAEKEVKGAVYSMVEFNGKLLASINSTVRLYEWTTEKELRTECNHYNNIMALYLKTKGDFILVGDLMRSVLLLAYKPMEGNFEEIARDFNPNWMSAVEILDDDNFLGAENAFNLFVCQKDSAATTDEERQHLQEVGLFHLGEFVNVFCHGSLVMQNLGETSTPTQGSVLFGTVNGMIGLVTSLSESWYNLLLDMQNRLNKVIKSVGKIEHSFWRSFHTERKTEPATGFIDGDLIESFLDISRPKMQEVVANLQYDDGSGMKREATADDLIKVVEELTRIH

| Compound | drug concentration at which nearly maximal downregulation is observed ([1]; iTAG1(DCD23) and iTAG2 tagged CAR, FIG. 7) [µM] | potency for degradation among lenalidomide, pomalidomide and iberdomide ([1]; tagged CAR, FIG. 7) | optimal IMiD concentration to mediate CAR downregulation upon treatment and re-upregulation upon withdrawal ([2]; TE9-iTAG2 CAR-T, overnight treatment, wash, 24 h rest, FIG. 15) [µM] | CAR expression after drug treatment ([2]; primary human T cells, 10 uM iberdomide for 24 hours, FIG. 8) | relative affinity of iTAG1 and iTAG2 for CRBN/DDB1-IMiD complex, order of IMiDs [3] | nuclear accumulation / localisation of tagged EGFP/GFP [4] | cell surface expression of tagged CAR relative to CD34 marker ([5]; transduced 293T and Jurkat cells, FIG. 6) | surface expression of tagged CARs ([5]; transduced Jurkat cells, 41BB and CD28 versions of TE9 CAR, FIG. 10) | time of drug treatment at which maximal reduction of surface expression is detectable ([1]; lenalidomide, pomalidomide, iberdomide) [h] | CAR re-expression after drug washout ([2]; washed in PBS, rested 24 h in RPMI1640, FIG. 15) | antigen-dependent reactivity, superiority over DCD23-tagged CAR-T [6] | effector function compared with untagged CAR ([6]; SupT1-B7H3, FIG. 9) | complex formation by SEC and SDS-PAGE [7] |
| --- | --- | --- | --- | --- | --- | --- | --- | --- | --- | --- | --- | --- | --- |
| O=C1CC[C@H](N2Cc3c(OCc4ccc(CN5CCOCC5)cc4)cccc3C2=O)C(=O)N1 [Iberdomide/ CC220, Iberdomide] | 0.01 | highest potency | 0.01 | near complete loss of expression of the brightly expressed CAR population | tightest binding | – | – | – | – | – | – | – | – |
| iTAG2: mutated iTAG1 degron tag, SEQ ID NO: 43, PNVLMVHNESHTGEIPLQCEICGFTCEQAGNLLNHIELHSGEIPFKCHLCNYACRRRDAL (iTAG2) | – | – | – | – | – | abolished nuclear accumulation; also recorded: cytoplasmic localisation | superior cell surface expression | same expression as wild type | 4 | re-upregulated after IMiD washout | approximately 10 fold | not significantly different to untagged CAR | formation of a complex between DDB1, CRBN and iTAG2 in the presence of iberdomide |
